{"source": "paper PMC4993559", "about": "(Journal of Experimental Pharmacology, 2016)", "key": {"HIPK4 [1]": {"biological_target": "T1, HIPK4 (Homo sapiens, UniProt Q8NE63)", "T1 sequence (Q8NE63 1-616)": "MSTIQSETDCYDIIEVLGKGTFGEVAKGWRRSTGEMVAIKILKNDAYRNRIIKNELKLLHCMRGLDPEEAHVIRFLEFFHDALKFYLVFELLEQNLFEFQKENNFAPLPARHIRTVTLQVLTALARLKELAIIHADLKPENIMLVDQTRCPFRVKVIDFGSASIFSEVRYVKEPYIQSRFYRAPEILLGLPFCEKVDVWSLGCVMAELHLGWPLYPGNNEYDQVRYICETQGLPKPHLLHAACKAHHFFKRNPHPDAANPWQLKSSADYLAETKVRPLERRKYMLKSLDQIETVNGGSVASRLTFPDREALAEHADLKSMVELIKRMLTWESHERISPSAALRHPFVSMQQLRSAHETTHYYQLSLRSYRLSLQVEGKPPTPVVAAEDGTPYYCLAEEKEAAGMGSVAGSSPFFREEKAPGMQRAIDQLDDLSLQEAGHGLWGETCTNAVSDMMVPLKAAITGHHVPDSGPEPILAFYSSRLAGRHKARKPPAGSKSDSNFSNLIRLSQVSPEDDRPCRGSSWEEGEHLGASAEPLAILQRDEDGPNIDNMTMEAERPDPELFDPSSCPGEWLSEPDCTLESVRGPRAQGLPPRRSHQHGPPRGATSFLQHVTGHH", "details": "read-out: IC50 (class); Momelotinib scale; cited from earlier work"}, "c-src [2]": {"biological_target": "T2, c-src (Homo sapiens, UniProt P12931)", "T2 sequence (P12931 whole entry)": "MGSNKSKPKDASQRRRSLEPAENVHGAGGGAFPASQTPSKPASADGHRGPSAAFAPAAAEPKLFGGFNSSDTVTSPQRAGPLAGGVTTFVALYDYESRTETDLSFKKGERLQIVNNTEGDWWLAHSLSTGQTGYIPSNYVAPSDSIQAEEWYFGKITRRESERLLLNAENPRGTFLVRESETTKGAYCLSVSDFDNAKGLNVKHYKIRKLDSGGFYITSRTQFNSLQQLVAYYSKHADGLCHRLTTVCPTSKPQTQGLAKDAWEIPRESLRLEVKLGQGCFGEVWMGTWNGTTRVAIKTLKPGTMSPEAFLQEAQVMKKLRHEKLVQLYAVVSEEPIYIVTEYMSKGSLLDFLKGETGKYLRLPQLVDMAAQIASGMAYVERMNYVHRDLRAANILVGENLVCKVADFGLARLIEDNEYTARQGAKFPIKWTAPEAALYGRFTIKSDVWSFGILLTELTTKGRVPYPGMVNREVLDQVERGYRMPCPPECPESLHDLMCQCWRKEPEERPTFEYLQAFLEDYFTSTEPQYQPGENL", "details": "read-out: IC50 (class); Momelotinib scale; cited from earlier work"}, "ROS1 [3]": {"biological_target": "T3, ROS1 (Homo sapiens, UniProt P08922)", "T3 sequence (P08922 28-2347)": "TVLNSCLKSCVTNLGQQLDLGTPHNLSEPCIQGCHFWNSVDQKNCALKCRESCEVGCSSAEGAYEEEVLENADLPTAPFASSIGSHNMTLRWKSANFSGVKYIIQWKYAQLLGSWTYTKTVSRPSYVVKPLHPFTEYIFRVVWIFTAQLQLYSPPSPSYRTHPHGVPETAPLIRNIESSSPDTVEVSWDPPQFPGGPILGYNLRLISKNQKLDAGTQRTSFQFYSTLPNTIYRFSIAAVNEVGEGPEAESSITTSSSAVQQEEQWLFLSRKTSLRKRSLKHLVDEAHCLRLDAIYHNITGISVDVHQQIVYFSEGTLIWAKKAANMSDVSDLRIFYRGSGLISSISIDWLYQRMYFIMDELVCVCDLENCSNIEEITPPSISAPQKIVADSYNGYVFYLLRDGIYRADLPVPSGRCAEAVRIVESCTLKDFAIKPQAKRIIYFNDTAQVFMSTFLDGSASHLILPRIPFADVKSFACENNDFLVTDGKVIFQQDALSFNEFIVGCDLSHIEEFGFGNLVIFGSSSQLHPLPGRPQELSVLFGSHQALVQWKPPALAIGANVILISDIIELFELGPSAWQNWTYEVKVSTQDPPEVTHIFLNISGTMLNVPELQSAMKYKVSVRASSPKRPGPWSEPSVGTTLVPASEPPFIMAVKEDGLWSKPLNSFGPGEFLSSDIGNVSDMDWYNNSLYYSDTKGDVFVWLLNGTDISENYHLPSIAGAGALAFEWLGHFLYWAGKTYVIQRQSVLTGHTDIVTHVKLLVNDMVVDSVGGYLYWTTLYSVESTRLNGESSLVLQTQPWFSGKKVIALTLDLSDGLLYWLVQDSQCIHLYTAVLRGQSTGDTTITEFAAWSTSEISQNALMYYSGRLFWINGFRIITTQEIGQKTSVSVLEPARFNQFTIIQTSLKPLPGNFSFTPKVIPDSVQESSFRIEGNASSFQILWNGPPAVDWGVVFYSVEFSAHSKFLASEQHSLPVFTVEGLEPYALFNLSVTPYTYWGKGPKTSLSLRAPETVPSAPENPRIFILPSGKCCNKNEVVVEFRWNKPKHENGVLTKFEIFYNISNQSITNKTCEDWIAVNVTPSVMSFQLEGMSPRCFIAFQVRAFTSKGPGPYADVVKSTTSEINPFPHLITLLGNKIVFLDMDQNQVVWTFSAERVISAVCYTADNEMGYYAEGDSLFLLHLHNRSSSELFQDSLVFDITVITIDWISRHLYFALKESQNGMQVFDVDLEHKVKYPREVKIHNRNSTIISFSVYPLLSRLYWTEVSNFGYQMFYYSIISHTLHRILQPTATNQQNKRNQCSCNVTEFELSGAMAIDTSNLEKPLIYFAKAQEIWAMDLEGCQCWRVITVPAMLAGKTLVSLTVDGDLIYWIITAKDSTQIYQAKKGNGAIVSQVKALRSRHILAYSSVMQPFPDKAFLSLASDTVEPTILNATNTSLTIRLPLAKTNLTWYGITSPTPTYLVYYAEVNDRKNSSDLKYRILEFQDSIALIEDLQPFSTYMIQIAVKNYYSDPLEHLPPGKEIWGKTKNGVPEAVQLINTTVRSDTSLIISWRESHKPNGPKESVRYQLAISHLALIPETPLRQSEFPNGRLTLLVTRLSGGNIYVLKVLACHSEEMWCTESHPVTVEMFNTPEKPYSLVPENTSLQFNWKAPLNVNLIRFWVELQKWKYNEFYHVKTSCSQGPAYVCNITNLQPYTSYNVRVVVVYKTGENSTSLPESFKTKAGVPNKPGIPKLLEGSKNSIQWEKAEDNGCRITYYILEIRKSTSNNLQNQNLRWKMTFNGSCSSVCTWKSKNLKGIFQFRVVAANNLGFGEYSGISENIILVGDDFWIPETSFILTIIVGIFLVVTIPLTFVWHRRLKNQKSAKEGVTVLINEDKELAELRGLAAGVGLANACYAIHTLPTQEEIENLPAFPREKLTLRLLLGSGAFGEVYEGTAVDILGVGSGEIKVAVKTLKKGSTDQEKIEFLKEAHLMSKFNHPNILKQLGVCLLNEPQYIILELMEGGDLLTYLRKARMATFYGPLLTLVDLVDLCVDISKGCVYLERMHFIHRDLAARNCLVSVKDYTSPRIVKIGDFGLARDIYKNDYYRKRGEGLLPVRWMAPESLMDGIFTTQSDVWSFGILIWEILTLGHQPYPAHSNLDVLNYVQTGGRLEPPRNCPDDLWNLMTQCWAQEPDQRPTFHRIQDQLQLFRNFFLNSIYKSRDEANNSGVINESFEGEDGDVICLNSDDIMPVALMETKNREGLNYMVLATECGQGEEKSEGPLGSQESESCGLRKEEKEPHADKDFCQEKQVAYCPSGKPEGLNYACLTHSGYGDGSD", "details": "read-out: IC50 (class); Momelotinib scale; cited from earlier work"}, "CSF1R (c-fms) [4]": {"biological_target": "T4, CSF1R (c-fms) (Homo sapiens, UniProt P07333)", "T4 sequence (P07333 20-972)": "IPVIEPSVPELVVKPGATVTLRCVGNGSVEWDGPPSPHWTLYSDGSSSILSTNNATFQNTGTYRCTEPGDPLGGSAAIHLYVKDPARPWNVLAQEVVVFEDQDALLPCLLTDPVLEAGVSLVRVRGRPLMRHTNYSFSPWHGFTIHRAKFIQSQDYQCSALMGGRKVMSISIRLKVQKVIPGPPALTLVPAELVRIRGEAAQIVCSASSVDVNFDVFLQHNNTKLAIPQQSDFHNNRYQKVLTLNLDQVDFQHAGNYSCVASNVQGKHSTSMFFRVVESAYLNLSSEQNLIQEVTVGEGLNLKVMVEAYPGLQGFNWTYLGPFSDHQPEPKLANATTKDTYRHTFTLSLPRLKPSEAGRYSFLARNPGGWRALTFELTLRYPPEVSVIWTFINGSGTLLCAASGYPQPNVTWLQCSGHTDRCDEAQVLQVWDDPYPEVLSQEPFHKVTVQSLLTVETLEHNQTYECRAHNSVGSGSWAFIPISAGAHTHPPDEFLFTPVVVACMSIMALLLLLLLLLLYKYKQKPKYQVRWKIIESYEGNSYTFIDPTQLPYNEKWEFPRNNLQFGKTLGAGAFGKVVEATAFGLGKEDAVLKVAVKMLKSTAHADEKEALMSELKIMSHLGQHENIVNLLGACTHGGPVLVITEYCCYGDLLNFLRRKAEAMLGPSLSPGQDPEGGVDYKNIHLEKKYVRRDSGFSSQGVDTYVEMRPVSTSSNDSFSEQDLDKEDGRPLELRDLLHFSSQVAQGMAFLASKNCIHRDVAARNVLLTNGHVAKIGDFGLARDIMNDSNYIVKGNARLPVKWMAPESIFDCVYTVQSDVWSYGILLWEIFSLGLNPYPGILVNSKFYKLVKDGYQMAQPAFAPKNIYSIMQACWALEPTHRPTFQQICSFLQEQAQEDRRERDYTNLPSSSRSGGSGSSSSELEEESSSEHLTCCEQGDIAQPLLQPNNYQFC", "details": "read-out: IC50 (class); Momelotinib scale; cited from earlier work"}, "phosphorylated IRAK1": {"tested_on": "phosphorylated IRAK1", "details": "AML cells; cited from earlier work"}, "ROS1 [5]": {"biological_target": "T3, ROS1", "assay": "HotSpot radioisotope filter-binding kinase assay", "type": "biochemical"}, "TNK1": {"biological_target": "T5, TNK1 (Homo sapiens, UniProt Q13470)", "T5 sequence (Q13470 1-666)": "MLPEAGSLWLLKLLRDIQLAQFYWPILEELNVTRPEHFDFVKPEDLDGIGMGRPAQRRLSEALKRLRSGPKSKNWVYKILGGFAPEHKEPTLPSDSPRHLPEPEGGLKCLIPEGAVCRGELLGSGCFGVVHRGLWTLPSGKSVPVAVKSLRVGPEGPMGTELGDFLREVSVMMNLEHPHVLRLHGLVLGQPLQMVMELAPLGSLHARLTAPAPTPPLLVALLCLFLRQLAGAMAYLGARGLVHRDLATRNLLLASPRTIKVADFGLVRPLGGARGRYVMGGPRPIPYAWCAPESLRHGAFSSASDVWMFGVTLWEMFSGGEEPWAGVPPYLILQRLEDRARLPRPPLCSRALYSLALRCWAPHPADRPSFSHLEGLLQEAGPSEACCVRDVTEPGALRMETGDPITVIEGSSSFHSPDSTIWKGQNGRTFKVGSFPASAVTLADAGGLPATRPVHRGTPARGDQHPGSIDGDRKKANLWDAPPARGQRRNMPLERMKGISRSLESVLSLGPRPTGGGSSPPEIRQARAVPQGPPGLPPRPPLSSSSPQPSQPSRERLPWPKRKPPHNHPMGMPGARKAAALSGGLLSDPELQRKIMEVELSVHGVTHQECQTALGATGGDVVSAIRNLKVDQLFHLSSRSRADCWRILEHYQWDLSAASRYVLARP", "assay": "HotSpot radioisotope filter-binding kinase assay", "type": "biochemical"}, "primary CMML cells": {"tested_on": "primary CMML cells", "details": "cited from earlier work"}, "c-kit": {"biological_target": "c-kit (Homo sapiens, UniProt P10721)", "assay": "HotSpot radioisotope filter-binding kinase assay", "type": "biochemical"}, "HIPK4 [6]": {"biological_target": "T1, HIPK4", "assay": "HotSpot radioisotope filter-binding kinase assay", "type": "biochemical"}, "IRAK1": {"biological_target": "IRAK1 (Homo sapiens, UniProt P51617)", "assay": "HotSpot radioisotope filter-binding kinase assay", "type": "biochemical"}, "JAK1": {"biological_target": "JAK1 (Homo sapiens, UniProt P23458)", "sequence (P23458 whole entry)": "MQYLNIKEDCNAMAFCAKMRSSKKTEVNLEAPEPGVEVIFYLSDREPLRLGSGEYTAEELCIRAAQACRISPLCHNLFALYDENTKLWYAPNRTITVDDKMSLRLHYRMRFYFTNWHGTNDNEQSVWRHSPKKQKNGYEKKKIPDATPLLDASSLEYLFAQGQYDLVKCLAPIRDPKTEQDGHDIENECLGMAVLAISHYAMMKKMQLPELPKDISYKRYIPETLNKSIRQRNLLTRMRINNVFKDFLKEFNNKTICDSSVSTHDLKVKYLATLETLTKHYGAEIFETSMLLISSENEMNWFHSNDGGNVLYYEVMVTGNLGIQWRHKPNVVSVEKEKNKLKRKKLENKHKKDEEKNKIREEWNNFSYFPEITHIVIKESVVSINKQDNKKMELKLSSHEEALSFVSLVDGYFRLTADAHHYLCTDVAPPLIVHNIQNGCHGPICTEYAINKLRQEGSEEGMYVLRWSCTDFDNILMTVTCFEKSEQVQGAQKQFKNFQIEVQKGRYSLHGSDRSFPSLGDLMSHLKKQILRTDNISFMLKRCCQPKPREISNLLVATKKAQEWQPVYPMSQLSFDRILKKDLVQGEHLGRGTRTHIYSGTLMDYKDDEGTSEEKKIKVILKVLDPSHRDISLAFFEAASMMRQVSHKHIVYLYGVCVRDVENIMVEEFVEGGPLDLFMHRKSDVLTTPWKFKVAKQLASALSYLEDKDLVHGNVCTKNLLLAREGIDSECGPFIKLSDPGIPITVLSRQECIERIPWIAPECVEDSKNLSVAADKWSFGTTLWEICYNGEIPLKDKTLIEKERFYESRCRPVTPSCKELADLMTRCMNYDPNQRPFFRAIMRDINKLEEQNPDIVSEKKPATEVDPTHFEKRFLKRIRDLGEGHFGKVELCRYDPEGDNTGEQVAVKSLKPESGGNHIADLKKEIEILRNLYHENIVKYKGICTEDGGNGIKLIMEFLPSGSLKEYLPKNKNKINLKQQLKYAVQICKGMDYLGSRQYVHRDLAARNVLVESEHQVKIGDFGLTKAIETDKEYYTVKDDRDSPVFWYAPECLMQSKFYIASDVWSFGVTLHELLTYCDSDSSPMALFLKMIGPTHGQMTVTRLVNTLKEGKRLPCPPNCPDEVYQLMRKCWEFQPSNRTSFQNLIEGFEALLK", "assay": "HotSpot radioisotope filter-binding kinase assay", "type": "biochemical"}, "CSF1R (c-fms) [7]": {"biological_target": "T4, CSF1R (c-fms)", "assay": "HotSpot radioisotope filter-binding kinase assay", "type": "biochemical"}, "AML cell lines": {"tested_on": "AML cell lines", "details": "AML cell lines harboring various mutations; cited from earlier work"}, "TRKC": {"biological_target": "TRKC (Homo sapiens, UniProt Q16288)", "assay": "HotSpot radioisotope filter-binding kinase assay", "type": "biochemical"}, "TYK2": {"biological_target": "TYK2 (Homo sapiens, UniProt P29597)", "assay": "HotSpot radioisotope filter-binding kinase assay", "type": "biochemical"}, "c-src [8]": {"biological_target": "T2, c-src", "assay": "HotSpot radioisotope filter-binding kinase assay", "type": "biochemical"}, "[9]": {"assay": "Steady-state peak plasma concentration after 400 mg daily", "type": "in vivo", "details": "humans, calculated/simulated"}, "[10]": {"details": "IC50, recombinant kinase, 10 μM ATP"}}, "note": "Read-outs that look alike come from different tables or passages of the source.", "data": [{"smiles": "N#CCNC(=O)c1ccc(-c2ccnc(Nc3ccc(N4CCOCC4)cc3)n2)cc1", "note": "[Momelotinib]", "values": [{"measurement": "IC50", "setting": "HIPK4 [1]", "value": "< 1000", "unit": "nM"}, {"measurement": "IC50", "setting": "c-src [2]", "value": "> 1000", "unit": "nM"}, {"measurement": "IC50", "setting": "ROS1 [3]", "value": "< 1000", "unit": "nM"}, {"measurement": "IC50", "setting": "CSF1R (c-fms) [4]", "value": "< 1000", "unit": "nM"}]}, {"smiles": "C1=C/COCc2cc(ccc2OCCN2CCCC2)Nc2nccc(n2)-c2cccc(c2)COC/1", "note": "[Pacritinib, 11-(2-pyrrolidin-1-yl-ethoxy)-14,19-dioxa-5,7,26-triaza-tetracyclo[19.3.1.1(2,6). 1(8,12)]heptacosa-1(25),2(26),3,5,8,10,12(27),16,21,23-decaene]", "values": [{"measurement": "phosphorylation of IRAK1", "setting": "phosphorylated IRAK1", "value": "inhibits the phosphorylation of IRAK1"}, {"measurement": "IC50", "setting": "ROS1 [5]; IC50 (class), Pacritinib scale", "value": "< 25", "unit": "nM"}, {"measurement": "IC50", "setting": "ROS1 [5]; [10]", "value": 18.4, "unit": "nM"}, {"measurement": "IC50", "setting": "TNK1; IC50 (class), Pacritinib scale", "value": "< 25", "unit": "nM"}, {"measurement": "IC50", "setting": "TNK1; [10]", "value": 15, "unit": "nM"}, {"measurement": "activity combined with 5-azacitidine", "setting": "primary CMML cells", "value": "synergistic activity"}, {"measurement": "IC50", "setting": "c-kit; IC50 (class), Pacritinib scale", "value": "25 to 50", "unit": "nM"}, {"measurement": "IC50", "setting": "c-kit; [10]", "value": 43.8, "unit": "nM"}, {"measurement": "IC50", "setting": "HIPK4 [6]; IC50 (class), Pacritinib scale", "value": "< 25", "unit": "nM"}, {"measurement": "IC50", "setting": "HIPK4 [6]; [10]", "value": 14.5, "unit": "nM"}, {"measurement": "IC50", "setting": "IRAK1; IC50 (class), Pacritinib scale", "value": "< 25", "unit": "nM"}, {"measurement": "IC50", "setting": "IRAK1; [10]", "value": 13.6, "unit": "nM"}, {"measurement": "IC50", "setting": "JAK1", "value": "> 100", "unit": "nM"}, {"measurement": "remaining activity at 0.1 µM", "setting": "JAK1; read-out: kinase activity remaining (% control)", "value": 82, "unit": "%"}, {"measurement": "IC50", "setting": "JAK1; recombinant kinase, 10 μM ATP", "value": "Indeterminate"}, {"measurement": "IC50", "setting": "CSF1R (c-fms) [7]; IC50 (class), Pacritinib scale", "value": "25 to 50", "unit": "nM"}, {"measurement": "IC50", "setting": "CSF1R (c-fms) [7]; [10]", "value": "< 50", "unit": "nM"}, {"measurement": "viability and survival", "setting": "AML cell lines", "value": "reduces both the viability and survival"}, {"measurement": "IC50", "setting": "TRKC; IC50 (class), Pacritinib scale", "value": "< 25", "unit": "nM"}, {"measurement": "IC50", "setting": "TRKC; [10]", "value": 18.4, "unit": "nM"}, {"measurement": "IC50", "setting": "TYK2; IC50 (class), Pacritinib scale", "value": "25 to 50", "unit": "nM"}, {"measurement": "IC50", "setting": "TYK2; [10]", "value": 27, "unit": "nM"}, {"measurement": "IC50", "setting": "c-src [8]; IC50 (class), Pacritinib scale", "value": "25 to 50", "unit": "nM"}, {"measurement": "IC50", "setting": "c-src [8]; [10]", "value": 46.7, "unit": "nM"}, {"measurement": "total steady-state levels", "setting": "[9]", "value": "5 to 7", "unit": "µM"}, {"measurement": "mean peak plasma concentration of free drug at steady state", "setting": "[9]; oral", "value": "approximately 200 nM"}]}]}
